PubChem BioAssay (NCI)
“And” between values parts separate entries of the source, which are not always exact repeats. Identical values can stand only once.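 Interpolation was linear, between the two tested concentrations surrounding the appropriate level; five concentrations were tested over 48 hours in 96-well plates. At the GI50, growth is halved. The concentration for full growth arrest is given as TGI.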

What was measured:
Experiment in all cases: DTP human tumour cell line panel, 48 h
HOP-62 NSCLC = system: HOP-62 NSCLC
HL-60(TB) leukemia = system: HL-60(TB) leukemia
NCI-H23 lung = system: NCI-H23 lung
SK-OV-3 ovarian = system: SK-OV-3 ovarian
UO-31 renal = system: UO-31 renal
OVCAR-5 ovarian = system: OVCAR-5 ovarian
A498 renal = system: A498 renal
HCC-2998 colon = system: HCC-2998 colon
HCT-116 colon = system: HCT-116 colon
RPMI-8226 leukemia = system: RPMI-8226 leukemia

Compound	TGI (HOP-62 NSCLC)	TGI (HL-60(TB) leukemia)	TGI (NCI-H23 lung)	TGI (SK-OV-3 ovarian)	TGI (UO-31 renal) [µM]	TGI (OVCAR-5 ovarian)	TGI (A498 renal)	TGI (HCC-2998 colon)	TGI (HCT-116 colon)	GI50 (RPMI-8226 leukemia)	TGI (RPMI-8226 leukemia) [µM]	GI50 (HCC-2998 colon)	GI50 (HOP-62 NSCLC)	GI50 (NCI-H23 lung)	GI50 (HCT-116 colon)	GI50 (SK-OV-3 ovarian)	GI50 (UO-31 renal) [µM]	GI50 (OVCAR-5 ovarian)	GI50 (A498 renal)	GI50 (HL-60(TB) leukemia)
Cc1nc2cc(N)c(F)cc2[nH]1	> 100 µM	> 100 µM	> 100 µM	> 100 µM	> 100	> 100 µM	> 100 µM													
CCn1c(O)c(C=N)c(=O)n(CC)c1=O	> 100 µM	> 100 µM	> 100 µM	> 100 µM	> 100	> 100 µM	> 100 µM	> 100 µM	> 100 µM											
Cc1cc(N2CCCC2)nc(NC2CCCC(Nc3ccnc4cc(Cl)ccc34)C2)n1 (stereo not drawn)	2.95 µM		4.14 µM	3.49 µM	2.29	4.26 µM	3.48 µM	2.68 µM	1.68 µM	0.322 µM	1.4	1.12 µM	1.32 µM	1.59 µM	0.442 µM	1.86 µM	1.05	1.45 µM	1.91 µM	
CN(C)CC/C(=N\Nc1ccccc1)c1ccccc1	31 µM		> 100 µM	34.7 µM	22.8	30.9 µM		58.9 µM	34.4 µM		> 100									
O=C1NC2CCC(C2)C1c1ccccc1 (stereo not drawn)		> 100 µM	> 100 µM	> 100 µM	> 100	> 100 µM	> 100 µM	> 100 µM			> 100									
CCCN1CCN(c2ccc3nc(-c4ccc5nc(-c6cc(OC)ccc6OC)[nH]c5c4)[nH]c3c2)CC1		8.91 µM	3.85 µM		29.3	34.2 µM	30.4 µM	3.25 µM	3.16 µM	2.17 µM	4.79	1.8 µM		1.93 µM	1.74 µM		14.6	17.8 µM	15.6 µM	3.12 µM
COC(=O)C(=O)C(C#N)c1ccc(CC#N)cc1 (stereo not drawn)		> 100 µM	> 100 µM	> 100 µM	> 100				> 100 µM		> 100									
CCCn1c(SCC)c2cc3cc4ccccc4cc3cc2c1-c1nc(F)nc(F)n1	> 100 µM	> 100 µM	> 100 µM	> 100 µM	> 100	> 100 µM		> 100 µM	> 100 µM		> 100									
CN(C)C1CCN(C(=O)c2ccc(NC(=O)Nc3ccc(-c4nc(N5CCOCC5)nc(N5CCOCC5)n4)cc3)cc2)CC1	0.382 µM and 1.9 µM and 1.1 µM	> 20.4 µM and 2.5 µM and 8.91 µM	15.7 µM and 2.5 µM and 2.3 µM	0.0485 µM and 0.0434 µM and 0.188 µM		0.325 µM and 2.5 µM and 0.331 µM	0.282 µM and 0.154 µM and 0.0788 µM	0.839 µM and 2.5 µM and 1.03 µM	5.91 µM and 2.5 µM and 2.8 µM	0.0404 µM and 0.0615 µM and 0.0978 µM		0.0118 µM and 0.024 µM and 0.0102 µM	0.022 µM and 0.102 µM and 0.0324 µM	0.0368 µM and 0.0297 µM and 0.0732 µM	0.0289 µM and 0.0441 µM and 0.0359 µM	< 0.01 µM and 0.00732 µM and 0.0204 µM		0.0167 µM and 0.0317 µM and 0.0166 µM	0.0391 µM and 0.03 µM and 0.00566 µM	0.244 µM and 0.0457 µM and 0.0526 µM
O=C1c2ccccc2C2(O)NC(=S)N(c3ccccc3)C12O (stereo not drawn)		> 100 µM	> 100 µM	> 100 µM	> 100	> 100 µM		> 100 µM	> 100 µM		> 100									
COc1cc(C=Nc2ccc(C(C)C)cc2)cc(OC)c1OC	> 100 µM	> 82.3 µM	> 100 µM	> 100 µM	> 100	> 100 µM	> 100 µM		> 100 µM		> 68.4									
O=c1ccnc2c1ccc1[nH]cccc12	> 100 µM	> 100 µM	> 100 µM	> 100 µM	> 100	> 100 µM	> 100 µM	> 100 µM	> 100 µM											
Cc1ccc(NC(=O)CCC/C(CC(=O)c2ccc(Br)cc2)=N/NC(=O)CC#N)cc1	> 100 µM	> 100 µM	> 100 µM		> 100	> 100 µM		> 100 µM	> 100 µM		> 100									
CC(=O)/C(=C\C1=CCCO1)C(=O)Nc1ccccc1C	> 100 µM	> 100 µM	> 100 µM	> 100 µM	> 100	> 100 µM		> 100 µM	> 100 µM		> 100									
COc1ccc2c(CN3CCC[C@H]3C(=O)O)cc3cc4c(cc3c2c1)OCO4	86.1 µM	67.8 µM		51.1 µM	> 100	> 100 µM	26.4 µM	33.7 µM	> 100 µM	9.87 µM	39.3	14.5 µM	19.4 µM		4.8 µM	14.6 µM	17	38.1 µM	11.1 µM	22.9 µM
CC(=O)Nc1c(C)ccc2c1C(=O)c1ccccc1C2=O	> 100 µM	> 100 µM		> 100 µM	> 100	> 100 µM	> 100 µM	> 100 µM	> 100 µM		> 100									
CCOc1ccc(Nc2nc(-c3ccc4c(c3)NC(=O)CO4)cs2)cc1	> 100 µM	8.17 µM	> 100 µM	> 100 µM	> 100	> 100 µM	55.4 µM		> 100 µM	14.9 µM	> 100		15.4 µM	6.96 µM	4.01 µM	32.5 µM	5.47	> 100 µM	13.6 µM	2.14 µM
CCOC(=O)C1=C(Nc2ccc(Cl)cc2Cl)OC/C1=N\NS(=O)(=O)c1ccc(C)cc1	> 100 µM	> 100 µM	> 100 µM	> 100 µM	> 100	> 100 µM	> 100 µM	> 100 µM	> 100 µM											
CC1(C)CCC[C@@]2(C)C1CC[C@H]1CC(O)C3(C)CCC12C3 (stereo partly drawn)	34.5 µM	51.2 µM	32.8 µM	36.3 µM	33.3	32.2 µM		34.1 µM	31 µM		72.6									
CC/C(=C(/CC)c1ccc(O)cc1)c1ccc([O-])cc1.CC/C(=C(/CC)c1ccc(O)cc1)c1ccc([O-])cc1.O=C([CH-]C(=O)c1ccccc1)c1ccccc1.O=C([CH-]C(=O)c1ccccc1)c1ccccc1.[Ti+4]	28.3 µM			52.2 µM	38.6	46.7 µM		24.6 µM	17.3 µM	30.5 µM	> 100	12.2 µM	14.7 µM		5.22 µM	19.8 µM	21.8	23.9 µM		
